The target of data set [1] is T1, Substance-K receptor (Homo sapiens) (UniProt P21452).
T1 sequence (whole entry): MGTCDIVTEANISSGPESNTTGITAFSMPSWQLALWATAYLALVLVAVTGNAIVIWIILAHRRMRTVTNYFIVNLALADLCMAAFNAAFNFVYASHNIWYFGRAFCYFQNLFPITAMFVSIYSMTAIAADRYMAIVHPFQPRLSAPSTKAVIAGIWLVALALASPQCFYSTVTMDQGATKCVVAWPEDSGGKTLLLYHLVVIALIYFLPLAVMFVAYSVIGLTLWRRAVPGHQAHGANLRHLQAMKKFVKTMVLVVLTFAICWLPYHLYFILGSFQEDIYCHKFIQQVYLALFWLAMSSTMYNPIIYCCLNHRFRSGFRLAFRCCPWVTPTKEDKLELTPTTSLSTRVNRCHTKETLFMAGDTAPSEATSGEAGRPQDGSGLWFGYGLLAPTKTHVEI
In words: Inhibition of human NK2 receptor expressed in CHO cells at 10 uM. It is filed as cell-based.

Data set [2] addresses T2, Substance-P receptor (Homo sapiens, UniProt P25103). The data set can be described thus: Inhibition of human NK1 receptor expressed in U373MG cells at 10 uM. As to conditions: U-373MG ATCC. It is filed as cell-based.
A short description of data set [3]: Stability in human liver microsomes after 60 min. It is filed as ADME, Microsome. As to conditions: read-out: Stability. (In general: Liver microsomes are a subcellular fraction often used to study metabolism.)
Data set [4] can be described thus: Stability in rat liver microsomes after 60 min. As to conditions: read-out: Stability. It counts as ADME, Microsome.
Data set [5] can be described thus: Oral bioavailability in rat at 15 mg/kg, po. It is filed as ADME, organism-based. As to conditions: in vivo.
A short description of data set [6]: Bioavailability in cynomolgus monkey. As to conditions: in vivo. It counts as ADME, organism-based, Macaca fascicularis.
The nature of data set [7]: Half life in cynomolgus monkey. It counts as ADME, organism-based, Macaca fascicularis. As to conditions: in vivo.
The nature of data set [8]: Half life in rat at 15 mg/kg, po. It is filed as ADME, organism-based. Also noted: dose 15 mg/kg, route oral. As to conditions: in vivo.
Data set [9] has as its system Mus musculus. The data set can be described thus: Anxiolytic activity in mouse after oral administration by EPM test. It is filed as functional. As to conditions: read-out: MED.
Data set [10] deals with Mus musculus. In words: Anxiolytic activity in orally dosed mouse assessed as reversal of DOI-induced head shake. It is filed as functional. As to conditions: po, read-out: MED.
A short description of data set [11]: Oral bioavailability in rat at 40 mg/kg, po. It is filed as ADME, organism-based. As to conditions: in vivo.
Data set [12] can be described thus: Stability in rat liver microsomes after 90 min. As to conditions: read-out: Stability. It counts as ADME, Microsome.
Data set [13] in a line: Stability in human liver microsomes after 90 min. As to conditions: read-out: Stability. It counts as ADME, Microsome.
For a further data set, the species on record is Homo sapiens. The data set can be described thus: Inhibition of GABA transporter at 10 uM.
A short description of data set [14]: Half life in rat at 40 mg/kg, po. It is filed as ADME, organism-based. Also noted: dose 40 mg/kg, route oral. As to conditions: in vivo.
Data set [15] concerns the target T2, Substance-P receptor. The data set can be described thus: Inhibition of human NK1 receptor expressed in U373MG cells. It counts as cell-based, U-373MG ATCC.
The next data set deals with T3, Substance-K receptor (Homo sapiens, UniProt P21452).
T3 sequence (P21452 whole entry): T1 sequence (whole entry)
The data set can be described thus: Inhibition of human NK2 receptor expressed in CHO cells. It counts as cell-based.

The nature of data set [16]: Oral bioavailability in rat at 10 mg/kg, po. As to conditions: in vivo. It is filed as ADME, organism-based.
Data set [17] can be described thus: Oral bioavailability in rat at 3 mg/kg, po. It counts as ADME, organism-based. As to conditions: in vivo.

pIC50: −log10 of the molar value.

T2 sequence (P25103 whole entry): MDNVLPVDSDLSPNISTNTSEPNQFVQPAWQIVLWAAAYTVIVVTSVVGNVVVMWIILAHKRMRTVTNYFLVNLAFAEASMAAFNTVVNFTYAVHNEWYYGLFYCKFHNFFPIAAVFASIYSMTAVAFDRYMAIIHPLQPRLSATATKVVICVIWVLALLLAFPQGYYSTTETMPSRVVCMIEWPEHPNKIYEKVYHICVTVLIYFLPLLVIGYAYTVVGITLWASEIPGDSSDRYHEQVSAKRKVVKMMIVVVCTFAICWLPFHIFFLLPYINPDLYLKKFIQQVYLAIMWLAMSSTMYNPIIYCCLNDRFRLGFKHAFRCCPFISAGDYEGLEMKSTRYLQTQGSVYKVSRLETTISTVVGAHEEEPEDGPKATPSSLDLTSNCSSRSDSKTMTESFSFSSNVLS

By inhibition is commonly meant the change of the read-out against control, counted positive when it falls. For the compound `O=C(CC1CCN(C(=O)c2cccc(C#Cc3ccccc3)c2)CC1)Nc1ccccc1`, the inhibition in data set [1] came out at 7%; at Substance-P receptor [2] it was 28%.
In general, bioavailability refers to dose-corrected exposure relative to a reference, in per cent. The term half-life denotes how long it takes for the measured level to halve. With `O=C(CC1CCN(C(=O)c2cccc(C#Cc3ccccn3)c2)CC1)Nc1ccc(F)cc1F`, the remaining at 1 h in data set [3] is 15%; in data set [4], 0.1%. For the same compound, the inhibition in data set [1] was determined as 8%; at Substance-P receptor [2], 16%. Moreover, the bioavailability turned out to be 7% in data set [5] and 38% in data set [6]. The half-life in data set [7] was 3.1 h; in data set [8] it was 2.7 h. For the same compound, the minimal effective dose in the data set with Mus musculus [9] came to 1 mg/kg; with Mus musculus [10], 0.1 mg/kg.
In the case of `O=C(CC1CCN(C(=O)c2cccc(C#Cc3ccccn3)c2)CC1)Nc1ccccc1`, the bioavailability in data set [11] was determined as 65%. Besides, the remaining at 1.5 h in data set [12] came to 63%; in data set [13] it was 35%. Also, the inhibition in [1] is 11%; in the data set listed under Homo sapiens it was 60%; on Substance-P receptor [2] it was 37%. Further, the minimal effective dose in the data set on Mus musculus [9] stood at 1 mg/kg; in the data set with Mus musculus [10], 20 mg/kg. The same compound gave a half-life in data set [14] of 3.1 h.
What is called pIC50 is the IC50 on a negative log10 scale, so that one unit is a factor of ten. For the compound `O=C(CC1CCN(C(=O)c2cccc(C#Cc3ccccn3)c2)CC1)Nc1ccc(F)cc1`, the negative-log IC50 (pIC50) on Substance-P receptor [15] and against Substance-K receptor was 6.00 each time. The inhibition (in data set [1]; against Substance-P receptor [2]) was 96% throughout.
For `O=C(CC1CCN(C(=O)c2cccc(C#Cc3ccccn3)c2)CC1)Nc1ccc(O)cc1`, the bioavailability in [16] and in data set [17] was less than 2% in each case. Moreover, the results for the remaining at 1.5 h in data set [12] and in data set [13] were 97% and 80%, respectively. At Substance-P receptor [2], this compound gave an inhibition of 18%. The minimal effective dose with Mus musculus [9] was 3 mg/kg; with Mus musculus [10], 20 mg/kg.
In the case of `O=C(CC1CCN(C(=O)c2cccc(C#Cc3ccccn3)c2)CC1)Nc1ccccc1F`, the pIC50 against Substance-P receptor [15] is 6.19; against Substance-K receptor, 6.26. Also, the inhibition in data set [1] amounted to 97%; on Substance-P receptor [2], 96%.

For the origin of these results see ChEMBL document CHEMBL1147802, “Diarylacetylene piperidinyl amides as novel anxiolytics” (Bioorg Med Chem Lett, 2006).
